Tests used:
[1] = Cytotoxicity against human MCF10A cells at 7.8 to 1000 uM after 24 hrs by XTT assay; format: toxicity, cell-based; conditions: mcf-10a
[2] = Cytotoxicity against human MCF7 cells after 24 hrs by XTT assay; conditions: MCF7, 24 h
[3] = Cytotoxicity against human HeLa cells after 24 hrs by XTT assay; format: functional, cell-based
[4] = Cytotoxicity against human A549 cells after 24 hrs by XTT assay; format: functional, cell-based; conditions: A549, 24 h

Row | Compound | Activity [1] | IC50 [2] | IC50 [3] | IC50 [4]
1 | C[C@H]1CCC(=O)/C=C/C(=O)c2c(O)cc(O)cc2CC(=O)O1 | Non-Toxic |  |  | 
2 | COC(=O)[C@@]1(O)CS[C@H]2CCC[C@H](C)OC(=O)Cc3cc(O)cc(O)c3C(=O)[C@@H]21 | Non-Toxic |  |  | 
3 | C[C@H]1CCC[C@@H]2SC[C@](O)(C(=O)O)[C@H]2C(=O)c2c(O)cc(O)cc2CC(=O)O1 | Non-Toxic |  |  | 
4 | C[C@H]1CCC[C@H]2O[C@H]2C(=O)c2c(O)cc(O)cc2CC(=O)O1 | Non-Toxic |  |  | 
5 | COc1cccc2c1C(=O)c1c(O)c3c(c(O)c1C2=O)C[C@@](O)(C(=O)CO)C[C@@H]3O[C@H]1C[C@H](N)[C@H](O)[C@H](C)O1 [DOXORUBICIN] |  | 120 nM | 140 nM | 190 nM

— ChEMBL document CHEMBL3853308, “Condensation of Macrocyclic Polyketides Produced by Penicillium sp. DRF2 with Mercaptopyruvate Represents a New Fungal Detoxification Pathway” (J Nat Prod, 2016)
